Legend:
[1] = tested on: CD11c+/CD40+/CD86+ spleen cells; assay: Splenic dendritic, B and T cells in non-CAIA Balb/c mice treated with SNS (FACS); format: in vivo, mouse; settings: 5 mg/kg i.p. five consecutive days
Experimental: (A) Reduction of CD11c+/CD40+/CD86+ cells isolated from spleens of non-CAIA Balb/c mice treated i.p. with SNS at 5 mg/kg or with PBS for 5 consecutive days. Spleens were isolated on the next day after the last SNS injection and splenocytes were analyzed using FACS. The percentage value represents CD11c+/CD40+/CD86+ cell percentage out of the entire splenocyte population. […] Values on X and Y axes represent fluorescence intensity for cell surface markers CD11c and CD40, B220, and CD90.2 (Thy-1), respectively.
Balb/c mice were treated i.p. with SNS for five consecutive days at 5 mg/kg and their spleen were harvested the next day after the last injection. Control mice received same numbers of injection of PBS. Splenic cells were stained with fluorescence-labeled antibodies, and analyzed by flow cytometry.

[2] = Body weight and tolerability in arthritic and non-arthritic rats of the AA study; format: in vivo, rat
Text: Adult male Lewis rats (200-250 g) were purchased from Charles River Laboratories, Raleigh, N.C. and housed two per cage. The animals were allowed to acclimate to the Sun Health Research Institute's vivarium for 7 days prior to the start of the experiment. The animals were maintained on a 12-h off/on light schedule. For AA rats rodent Diet (Purina Lab Diet 5001) was placed in the bottom of the cage and water was supplied using long-stemmed sipper tubes for easy access to food and water. […] Animals were weighed and observed daily to ensure adequate weight gain and good general health. Body weights and footpad measures were started 1 week prior to the first adjuvant injection to acclimate the animals to these mild stresses and obtain baseline data. Other than the development of arthritis, the good health of the animals was maintained throughout the course of the experiments. Protocols for the use and care of the animals in the study were approved prior to beginning the experiments by the Sun Health Research Institute Animal Use and Care Committee and complied with NIH guidelines for the humane use and care of research animals. Dorsoplantar footpad measurements were completed every other day. Prior to sacrifice the animals were given a 1.0 ml intraperitoneal (i.p.) injection of 8% chloral hydrate in sterile saline and radiographs were taken of their hind limbs to assess disease severity. The animals were then sacrificed using an overdose of chloral hydrate.
Lewis rats were randomly assigned into five experimental groups of four animals per group. The experimental groups were 1) saline/M. Butyricum suspended in saline (non-arthritic; control for drug and antigen challenge), 2) sodium narcistatin/M. Butyricum suspended in saline (non-arthritic; drug control for antigen challenge), 3) no treatment-CFA (arthritic; control for stress of injections), 4) saline-CFA (arthritic; control for drug treatment), and 5) sodium-narcistatin-CFA (arthritic) treatments. The experiment was completed with an N=4 then repeated with an additional N=4. […]

CAIA mice = assay: Collagen type II antibody-induced arthritis (CAIA) mouse model; format: in vivo
Experimental: FIG. 9A-H the effect of SNS on hind paw swelling in CAIA mice. A and E: Day 0, B and F: Day 7, C: Day 10 in PBS-treated CAIA, G: Day 10 in SNS-treated CAIA after 3 injections, D: Day 12 in PBS-treated mice, and H: Day 12 in SNS-treated CAIA mice after five injections. SNS treatment was started on day 7 after anti-collagen type II mAb injection and i.p. injections of SNS were continued for 5 consecutive days at a dose of 5 mg/kg.
FIG. 10 is a graph of the data (exemplified in FIG. 9) on CAIA progression and effect of SNS on foot pad measurements in CAIA mice. Solid square: PBS-treated CAIA group (n=5), closed triangle: SNS-treated CAIA group (n=5). SNS treatment (i.p.) was started on day 7 after anti-collagen type II mAb injection, and SNS injections were continued for 5 consecutive days at a dose of 5 mg/kg. Values represent mean±S.E.M. P<0.0001. Statistical analysis was performed using t-test.
Sections of ankle joints were stained with hematoxylin and eosin (original magnification, ×10) on day 21 after mAb injection. SNS treatment (i.p.) was started on day 7 after anti-collagen type II mAb injection, and SNS injections were continued for 5 consecutive days at a dose of 5 mg/kg. Representative joint sections in non-CAIA group (A and D), PBS-treated CAIA (B and E), and SNS-treated CAIA (C and F) are shown at magnifications of ×10 and ×40, respectively.
Collagen-induced arthritis (CIA) is an experimental model for rheumatoid arthritis. In this model, antibodies against type II collagen are critical for the pathogenesis of arthritis. […] This model system has been used for investigating underlying cellular and molecular mechanisms during the effector phase of CIA (1).
FIGS. 9-10 show CAIA progression and the effect of SNS on hind paw swelling in CAIA mice. […] A and E: Day 0 (mAb immunization), B and F: Day 7 after antibody injection, C. Day10 after immunization in PBS-treated CAIA, G: Day 10 after immunization in SNS-treated CAIA after three SNS injections, D: Day 12 after immunization in PBS-treated CAIA mice, and […]: Day 12 after immunization in SNS-treated CAIA mice after five SNS injections. Ib. […] Solid square: control CAIA group treated with PBS (n=5), closed triangle: sodium narcistatin-treated CAIA group (n=5). Values represent mean±S.E.M. p<0.0001 vs. control CAIA group.

O=C1N[C@@H]2C(=C[C@H](O)[C@H]3OP(=O)(O)O[C@H]32)c2cc3c(c(O)c21)OCO3 [SNS, sodium narcistatin]
CD11c+/CD86+/CD40+ spleen cells (mature dendritic cells) [1]: reduction of CD11c+/CD86+/CD40+ spleen cells
T- and B-cell profile (B220, CD90.2) [1]: not affected
tolerability / overt toxicity, arthritic rats ([2]; body weights and gross evaluation of internal organs at end point): no general signs of overt toxicity were apparent
body weight, non-arthritic control rats ([2]; day 28, chronic treatment, vs saline-treated non-arthritic controls, P<0.001): significantly decreased body weights
body weight, arthritic rats ([2]; day 28, vs untreated or saline-treated arthritic rats): not significantly different
joint swelling after the fifth injection (CAIA mice; CAIA mice, 5 mg/kg i.p.): swelling disappeared
joint swelling after the third injection (CAIA mice; CAIA mice, 5 mg/kg i.p.): reduced joint swelling
ankle width (CAIA mice; CAIA mice, 5 mg/kg i.p. 5 consecutive days from day 7, vs saline-treated, P<0.0001): significant decrease
histology of ankle joints: inflammatory infiltration, cartilage and bone destruction (CAIA mice; CAIA mice, day 21, hematoxylin and eosin): very little inflammatory infiltration to ankle joints and virtually no cartilage and bone destruction
toxicity in CAIA study (CAIA mice; at the dosage used): toxic to the animals
toxicity, SNS treatment only (CAIA mice; mice that only received SNS): did not observe toxicity
toxicity, combination of SNS and LPS treatment (CAIA mice; mouse, in vivo): appeared to increase toxicity

From patent US20050261246A1, “Methods for treating inflammatory and autoimmune diseases” (priority 2004, published 2005)
